Broadly, the IC50 is the concentration that gives 50% inhibition.

For assay [1], the target named is human TLR7 (Homo sapiens (Human), UniProt Q9NYK1). As to the kind of experiment: TLR7 inhibition reporter assay (HEK-Blue cells, SEAP reporter, gardiquimod stimulation). The format is cell-based.
Assay [2] concerns the target human TLR8 (Homo sapiens (Human), UniProt Q9NR97). As to the kind of experiment: TLR8 inhibition reporter assay (HEK-Blue cells, SEAP reporter, R848 stimulation).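 Also: compounds tested from 0.05 nM to 50 µM, 22 h at 37 °C, SEAP measured with HEK-Blue Detection, inhibition relative to agonist plus DMSO versus a known inhibitor.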
Assay [3] concerns the target human TLR9 (Homo sapiens (Human), UniProt Q9NR96). As to the kind of experiment: TLR9 inhibition reporter assay (HEK-Blue cells, SEAP reporter, ODN2006 stimulation). (In general: A reporter such as luciferase makes a cellular process visible.);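 also: compounds tested over 0.05 nM to 50 µM, 22 h incubation, inhibition taken as SEAP signal drop from agonist plus DMSO wells toward a known inhibitor control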
The mark [4] stands for this setting: HEK-Blue cells overexpressing human TLR7, gardiquimod 7.5 μM.
The mark [5] stands for this setting: read-out: TLR8 IC50, HEK-Blue cells overexpressing human TLR8, R848 15.9 μM.
Setting [6] is: read-out: TLR9 IC50, HEK-Blue cells overexpressing human TLR9, ODN2006 5 nM.
The mark [7] stands for this setting: HEK-Blue cells, gardiquimod 7.5 μM.
Where [8] appears, read: read-out: TLR8 IC50, HEK-Blue cells, R848 15.9 μM.
Setting [9] is: read-out: TLR9 IC50, HEK-Blue cells, ODN2006 5 nM.

Where two headings read alike, the source gives them in different places.

Sequence of human TLR9 (Q9NR96 26-1032): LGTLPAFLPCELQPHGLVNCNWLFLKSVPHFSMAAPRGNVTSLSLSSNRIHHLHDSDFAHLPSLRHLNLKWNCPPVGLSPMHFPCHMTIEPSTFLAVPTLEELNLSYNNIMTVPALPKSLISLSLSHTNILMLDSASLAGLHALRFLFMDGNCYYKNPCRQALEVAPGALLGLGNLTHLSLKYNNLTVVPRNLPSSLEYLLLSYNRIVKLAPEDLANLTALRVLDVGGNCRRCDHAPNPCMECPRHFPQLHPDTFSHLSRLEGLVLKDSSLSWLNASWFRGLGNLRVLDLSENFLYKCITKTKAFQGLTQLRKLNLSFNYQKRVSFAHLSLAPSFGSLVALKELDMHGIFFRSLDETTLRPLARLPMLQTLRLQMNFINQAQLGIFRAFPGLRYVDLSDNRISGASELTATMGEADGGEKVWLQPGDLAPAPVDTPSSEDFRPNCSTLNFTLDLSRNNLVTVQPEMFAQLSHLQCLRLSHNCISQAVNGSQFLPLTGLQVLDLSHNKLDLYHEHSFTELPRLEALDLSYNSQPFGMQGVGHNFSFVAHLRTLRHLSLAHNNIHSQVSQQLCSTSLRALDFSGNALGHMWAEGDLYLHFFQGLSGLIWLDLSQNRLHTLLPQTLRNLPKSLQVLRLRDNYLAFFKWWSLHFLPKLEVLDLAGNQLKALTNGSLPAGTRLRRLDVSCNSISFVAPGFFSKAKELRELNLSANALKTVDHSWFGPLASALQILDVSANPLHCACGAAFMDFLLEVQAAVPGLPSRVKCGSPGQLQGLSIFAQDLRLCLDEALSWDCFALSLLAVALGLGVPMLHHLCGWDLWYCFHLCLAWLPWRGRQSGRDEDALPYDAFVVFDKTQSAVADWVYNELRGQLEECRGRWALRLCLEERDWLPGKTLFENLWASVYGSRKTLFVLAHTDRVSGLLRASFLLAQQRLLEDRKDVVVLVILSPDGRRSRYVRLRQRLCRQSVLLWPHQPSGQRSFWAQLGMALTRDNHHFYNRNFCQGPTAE
Sequence of human TLR8 (Q9NR97 27-1041): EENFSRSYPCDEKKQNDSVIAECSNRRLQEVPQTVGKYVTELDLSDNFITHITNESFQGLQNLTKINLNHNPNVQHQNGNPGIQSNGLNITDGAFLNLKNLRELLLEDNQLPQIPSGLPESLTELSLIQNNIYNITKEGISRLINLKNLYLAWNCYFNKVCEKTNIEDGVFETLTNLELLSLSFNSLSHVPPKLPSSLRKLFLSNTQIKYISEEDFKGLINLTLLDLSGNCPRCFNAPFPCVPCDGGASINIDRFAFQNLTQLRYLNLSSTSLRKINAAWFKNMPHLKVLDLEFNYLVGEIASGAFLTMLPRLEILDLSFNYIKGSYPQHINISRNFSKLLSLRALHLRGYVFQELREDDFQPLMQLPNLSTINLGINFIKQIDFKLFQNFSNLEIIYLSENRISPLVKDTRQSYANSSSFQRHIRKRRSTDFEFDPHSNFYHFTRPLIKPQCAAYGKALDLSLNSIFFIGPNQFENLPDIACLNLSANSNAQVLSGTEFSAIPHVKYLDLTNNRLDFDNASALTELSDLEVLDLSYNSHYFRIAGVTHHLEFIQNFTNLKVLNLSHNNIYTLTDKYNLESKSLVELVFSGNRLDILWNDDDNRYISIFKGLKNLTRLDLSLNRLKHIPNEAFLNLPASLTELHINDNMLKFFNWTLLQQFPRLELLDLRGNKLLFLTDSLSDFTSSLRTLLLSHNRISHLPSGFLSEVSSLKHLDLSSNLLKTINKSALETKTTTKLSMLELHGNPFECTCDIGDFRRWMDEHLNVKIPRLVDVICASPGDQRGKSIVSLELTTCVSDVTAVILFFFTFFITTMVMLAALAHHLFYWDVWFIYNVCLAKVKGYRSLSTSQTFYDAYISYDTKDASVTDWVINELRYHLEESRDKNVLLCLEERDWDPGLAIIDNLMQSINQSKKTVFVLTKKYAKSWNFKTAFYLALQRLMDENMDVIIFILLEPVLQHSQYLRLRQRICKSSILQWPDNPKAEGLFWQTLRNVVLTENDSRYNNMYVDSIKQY
Sequence of human TLR7 (Q9NYK1 27-1049): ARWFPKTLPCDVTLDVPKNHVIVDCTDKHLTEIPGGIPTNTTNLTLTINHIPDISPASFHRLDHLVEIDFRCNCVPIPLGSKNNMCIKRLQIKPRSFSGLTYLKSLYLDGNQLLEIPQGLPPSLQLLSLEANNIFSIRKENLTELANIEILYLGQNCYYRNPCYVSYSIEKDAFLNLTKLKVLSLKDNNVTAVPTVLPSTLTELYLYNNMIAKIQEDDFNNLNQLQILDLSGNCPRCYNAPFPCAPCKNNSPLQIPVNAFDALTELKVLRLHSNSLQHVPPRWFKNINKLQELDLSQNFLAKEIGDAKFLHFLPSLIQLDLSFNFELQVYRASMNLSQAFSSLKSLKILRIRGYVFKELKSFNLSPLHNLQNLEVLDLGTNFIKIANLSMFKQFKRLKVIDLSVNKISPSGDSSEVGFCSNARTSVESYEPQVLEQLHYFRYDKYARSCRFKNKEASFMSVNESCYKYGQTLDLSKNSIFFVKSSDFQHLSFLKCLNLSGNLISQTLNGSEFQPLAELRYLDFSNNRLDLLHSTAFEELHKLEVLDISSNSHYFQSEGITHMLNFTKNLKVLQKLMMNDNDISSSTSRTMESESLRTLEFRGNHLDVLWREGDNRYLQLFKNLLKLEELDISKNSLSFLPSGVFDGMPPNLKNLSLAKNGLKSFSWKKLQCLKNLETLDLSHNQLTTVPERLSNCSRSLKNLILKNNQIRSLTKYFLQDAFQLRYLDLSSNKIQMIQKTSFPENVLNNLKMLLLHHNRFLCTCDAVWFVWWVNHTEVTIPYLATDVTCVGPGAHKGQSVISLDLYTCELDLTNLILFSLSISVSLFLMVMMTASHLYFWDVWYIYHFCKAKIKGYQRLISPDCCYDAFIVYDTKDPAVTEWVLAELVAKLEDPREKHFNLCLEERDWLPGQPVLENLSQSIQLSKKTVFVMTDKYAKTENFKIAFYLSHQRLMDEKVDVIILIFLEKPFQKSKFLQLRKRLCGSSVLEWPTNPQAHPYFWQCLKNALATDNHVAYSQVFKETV

As for `Cc1cc(-c2[nH]c3ccc(C4CCN(CC(O)C(F)(F)F)CC4)cc3c2C(C)C)cc(C)n1` (stereo not drawn) [Example 313, 3-(4-(2-(2,6-dimethylpyridin-4-yl)-3-isopropyl-1H-indol-5-yl)piperidin-1-yl)-1,1,1-trifluoropropan-2-ol], the IC50 in assay [1] (setting [4]) amounted to 39.9 nM; in assay [2] (setting [5]), 6.3 nM; in assay [3] (setting [6]), 8060 nM.

As to `Cc1cc(-c2[nH]c3ccc(C4CCN(C(=O)CC(=O)Nc5nccs5)CC4)cc3c2C(C)C)cc(C)n1` [Example 142, 3-(4-(2-(2,6-dimethylpyridin-4-yl)-3-isopropyl-1H-indol-5-yl)piperidin-1-yl)-3-oxo-N-(thiazol-2-yl)propanamide], the half-inhibitory concentration (IC50) was 18.2 nM in assay [1] (setting [4]), 96.3 nM in assay [2] (setting [5]) and over 50000 nM in assay [3] (setting [6]).

Consider `CC(=O)Nc1cnc(C)cc1-c1[nH]c2ccc(C3CCNCC3)cc2c1C(C)C` [Example 34, N-(4-(3-isopropyl-5-(piperidin-4-yl)-1H-indol-2-yl)-6-methylpyridin-3-yl)acetamide], for which the IC50 in assay [1] (setting [4]) stood at 1270 nM; in assay [2] (setting [5]), 160 nM; in assay [3] (setting [6]) it was 4610 nM.

Take `Cc1cc(-c2[nH]c3ccc(C4CCN(Cc5ncon5)CC4)cc3c2C(C)C)cc(C)n1` [Example 463, 3-((4-(2-(2,6-dimethylpyridin-4-yl)-3-isopropyl-1H-indol-5-yl)piperidin-1-yl)methyl)-1,2,4-oxadiazole]: the half-inhibitory concentration (IC50) was 8.3 nM in assay [1] (setting [4]), 17.7 nM in assay [2] (setting [5]) and 3360 nM in assay [3] (setting [6]).

On to `Cc1cc(-c2[nH]c3ccc(C4CCN(C(=O)c5cscn5)CC4)cc3c2C(C)C)cc(C)n1` [Example 201, (4-(2-(2,6-dimethylpyridin-4-yl)-3-isopropyl-1H-indol-5-yl)piperidin-1-yl)(thiazol-4-yl)methanone], for which the IC50 in assay [1] (setting [4]) is 5 nM; in assay [2] (setting [5]) it was 84.1 nM; in assay [3] (setting [6]), 5500 nM.

As for `Cc1cc(-c2[nH]c3ccc(C4CCN(C(C)C)CC4)cc3c2C(C)C)ccn1` [Example 869, 3-isopropyl-5-(1-isopropylpiperidin-4-yl)-2-(2-methylpyridin-4-yl)-1H-indole], the figures for the IC50 in assay [1] (setting [7]), in assay [2] (setting [8]) and in assay [3] (setting [9]) were 13.2 nM, 12.3 nM and 803 nM, respectively.

In the case of `Cc1cc(-c2[nH]c3ccc(C4CCN(S(=O)(=O)c5ccccc5)CC4)cc3c2C(C)C)ccn1` [Example 547, 3-isopropyl-2-(2-methylpyridin-4-yl)-5-(1-(phenylsulfonyl)piperidin-4-yl)-1H-indole], the IC50 in assay [1] (setting [4]) was 333 nM; in assay [2] (setting [5]), 1040 nM; in assay [3] (setting [6]) it was over 50000 nM.

Take `Cc1cc(-c2[nH]c3ccc(C4CCN(C(=O)C5CCN(C(C)C)CC5)CC4)cc3c2C(C)C)cc(C)n1` [Example 497, (4-(2-(2,6-dimethylpyridin-4-yl)-3-isopropyl-1H-indol-5-yl)piperidin-1-yl)(1-isopropylpiperidin-4-yl)methanone]: the values for the IC50 in assay [1] (setting [4]), in assay [2] (setting [5]) and in assay [3] (setting [6]) were 2.7 nM, 13.1 nM and 266 nM, respectively.

On to `Cc1cc(-c2[nH]c3cc(F)c(C4CCN(CC(=O)N(C)C)CC4)cc3c2C(C)C)c(F)cn1` [Example 836, 2-(4-(6-fluoro-2-(5-fluoro-2-methylpyridin-4-yl)-3-isopropyl-1H-indol-5-yl)piperidin-1-yl)-N,N-dimethylacetamide], for which the half-maximal inhibitory concentration (IC50) in assay [1] (setting [7]) is 3.9 nM; in assay [2] (setting [8]) it was 11.8 nM; in assay [3] (setting [9]), 4730 nM.

Regarding `Cc1cc(-c2[nH]c3ccc(C4CCN(C(=O)c5cccnc5)CC4)cc3c2C(C)C)cc(C)n1` [Example 112, (4-(2-(2,6-dimethylpyridin-4-yl)-3-isopropyl-1H-indol-5-yl)piperidin-1-yl)(pyridin-3-yl)methanone], the IC50 amounted to 6.2 nM in assay [1] (setting [4]), 99.9 nM in assay [2] (setting [5]) and 15800 nM in assay [3] (setting [6]).

Consider `CCc1c(-c2ccnc(NC(C)=O)c2)[nH]c2ccc(C3CCN(C4CCN(CC(C)C)CC4)CC3)cc12` [Example 766, N-(4-(3-ethyl-5-(1′-isobutyl-[1,4′-bipiperidin]-4-yl)-1H-indol-2-yl)pyridin-2-yl)acetamide], for which the IC50 in assay [1] (setting [4]) stood at 3980 nM; in assay [2] (setting [5]), 245 nM; in assay [3] (setting [6]), 83 nM.

In the case of `Cc1cc(-c2[nH]c3cc(C(F)(F)F)c(C4CCNCC4)cc3c2C(C)C)ccn1` [Example 74, 3-isopropyl-2-(2-methylpyridin-4-yl)-5-(piperidin-4-yl)-6-(trifluoromethyl)-1H-indole], the IC50 was found to be 13.1 nM in assay [1] (setting [4]), 437 nM in assay [2] (setting [5]) and 1160 nM in assay [3] (setting [6]).

For `CCN(CC)CC(=O)N1CCC(c2ccc3[nH]c(-c4cc(C)nc(C)c4)c(C(C)C)c3c2)CC1` [Example 99, 2-(diethylamino)-1-(4-(2-(2,6-dimethylpyridin-4-yl)-3-isopropyl-1H-indol-5-yl)piperidin-1-yl)ethan-1-one], the IC50 in assay [1] (setting [4]) is 3.1 nM; in assay [2] (setting [5]), 13 nM; in assay [3] (setting [6]), 497 nM.

Consider `Cc1cc(-c2[nH]c3ccc(C4CCN(Cc5[nH]cnc5C)CC4)cc3c2C(C)C)ccn1` [Example 744, 3-isopropyl-5-(1-((4-methyl-1H-imidazol-5-yl)methyl)piperidin-4-yl)-2-(2-methylpyridin-4-yl)-1H-indole], for which the figures for the 50% inhibitory concentration (IC50) in assay [1] (setting [4]), in assay [2] (setting [5]) and in assay [3] (setting [6]) were 28.1 nM, 13.5 nM and 281 nM, respectively.

As to `CCN1CCC(c2ccc3[nH]c(-c4cc(C)nc(C)c4)c(C(C)C)c3c2)CC1` [Example 322, 2-(2,6-dimethylpyridin-4-yl)-5-(1-ethylpiperidin-4-yl)-3-isopropyl-1H-indole], the concentration for half-maximal inhibition (IC50) in assay [1] (setting [4]) amounted to 2.1 nM; in assay [2] (setting [5]), 3.7 nM; in assay [3] (setting [6]), 401 nM.

With `CCCNC(=O)CN1CCC(c2ccc3[nH]c(-c4cc(C)nc(C)c4)c(C(C)C)c3c2)CC1` [Example 238, 2-(4-(2-(2,6-dimethylpyridin-4-yl)-3-isopropyl-1H-indol-5-yl)piperidin-1-yl)-N-propylacetamide], the IC50 in assay [1] (setting [4]) came out at 5.2 nM; in assay [2] (setting [5]), 10.2 nM; in assay [3] (setting [6]) it was 942 nM.

With `Cc1cc(-c2[nH]c3ccc(C4CCN(Cc5ccn(C)n5)CC4)cc3c2C(C)C)cc(C)n1` [Example 445, 2-(2,6-dimethylpyridin-4-yl)-3-isopropyl-5-(1-((1-methyl-1H-pyrazol-3-yl)methyl)piperidin-4-yl)-1H-indole], the IC50 turned out to be 3.6 nM in assay [1] (setting [4]), 0.7 nM in assay [2] (setting [5]) and 314 nM in assay [3] (setting [6]).

With `Cc1cc(-c2[nH]c3ccc(C4CCN(CC(=O)N[C@H](C)C(F)(F)F)CC4)cc3c2C(C)C)cc(C)n1` [Example 252, (R)-2-(4-(2-(2,6-dimethylpyridin-4-yl)-3-isopropyl-1H-indol-5-yl)piperidin-1-yl)-N-(1,1,1-trifluoropropan-2-yl)acetamide], the IC50 in assay [1] (setting [4]) turned out to be 8.3 nM; in assay [2] (setting [5]), 24.4 nM; in assay [3] (setting [6]), 1810 nM.

For `CCN(CC)C(=O)CN1CCC(c2ccc3[nH]c(-c4cc(C)nc(C)c4)c(C(C)C)c3c2)CC1` [Example 228, 2-(4-(2-(2,6-dimethylpyridin-4-yl)-3-isopropyl-1H-indol-5-yl)piperidin-1-yl)-N,N-diethylacetamide], the half-maximal inhibitory concentration (IC50) in assay [1] (setting [4]) was 11.5 nM; in assay [2] (setting [5]), 28.2 nM; in assay [3] (setting [6]) it was 1110 nM.

Source of the values: patent US10660877B2 (BRISTOL-MYERS SQUIBB COMPANY, priority 2016, dated 2020).
